# Assay results published in the NIST ThermoML archive (doi:10.1021/je050134y).
# ± gives the expanded uncertainty stated by the source.
# Experiment: activity coefficient (dimensionless); of the first substance listed, at infinite dilution; xn = mol fraction of the nth substance listed
# Conditions: 298 K; 101.3 kPa; Liquid; Chromatography; x1 = 0
row,SMILES,activity coefficient
1,CCCCCCCC [octane] + CCCCCCCC[n+]1ccn(C)c1.F[B-](F)(F)F,22 ± 1.5
2,C=CCCCCCCCCCC [1-dodecene] + CCCCCCCC[n+]1ccn(C)c1.F[B-](F)(F)F,32.7 ± 2.2
3,C=CCCCCCCC [1-nonene] + CCCCCCCC[n+]1ccn(C)c1.F[B-](F)(F)F,16.5 ± 1.1
4,CCCCC [pentane] + CCCCCCCC[n+]1ccn(C)c1.F[B-](F)(F)F,9.07 ± 0.62
5,CCO [ethanol] + CCCCCCCC[n+]1ccn(C)c1.F[B-](F)(F)F,1.75 ± 0.12
6,CCCCCCCCC [nonane] + CCCCCCCC[n+]1ccn(C)c1.F[B-](F)(F)F,28.4 ± 1.9
7,CCCCCCCCCC [decane] + CCCCCCCC[n+]1ccn(C)c1.F[B-](F)(F)F,36.4 ± 2.5
8,CCCCCCCCCCCC [dodecane] + CCCCCCCC[n+]1ccn(C)c1.F[B-](F)(F)F,77.9 ± 5.3
9,CCCCO [butan-1-ol] + CCCCCCCC[n+]1ccn(C)c1.F[B-](F)(F)F,2.32 ± 0.16
10,CCCCCCC [heptane] + CCCCCCCC[n+]1ccn(C)c1.F[B-](F)(F)F,16 ± 1.1
11,C=CCCCCCC [oct-1-ene] + CCCCCCCC[n+]1ccn(C)c1.F[B-](F)(F)F,13.1 ± 0.9
12,CCCCCCO [hexan-1-ol] + CCCCCCCC[n+]1ccn(C)c1.F[B-](F)(F)F,2.58 ± 0.18
13,CCCCCO [pentan-1-ol] + CCCCCCCC[n+]1ccn(C)c1.F[B-](F)(F)F,2.38 ± 0.16
14,CO [methanol] + CCCCCCCC[n+]1ccn(C)c1.F[B-](F)(F)F,1.07 ± 0.07
15,C=CCCCCCCCCC [1-undecene] + CCCCCCCC[n+]1ccn(C)c1.F[B-](F)(F)F,25.8 ± 1.8
16,C=CCCC [1-pentene] + CCCCCCCC[n+]1ccn(C)c1.F[B-](F)(F)F,5.08 ± 0.35
17,C=CCCCCC [1-heptene] + CCCCCCCC[n+]1ccn(C)c1.F[B-](F)(F)F,9.76 ± 0.67
18,CCCO [propan-1-ol] + CCCCCCCC[n+]1ccn(C)c1.F[B-](F)(F)F,2.18 ± 0.15
19,"C1=CCCC=C1 [1,3-cyclohexadiene] + CCCCCCCC[n+]1ccn(C)c1.F[B-](F)(F)F",2.69 ± 0.18
20,C=CCCCCCCCC [1-decene] + CCCCCCCC[n+]1ccn(C)c1.F[B-](F)(F)F,21.4 ± 1.5
21,CCCCCCCCCCC [undecane] + CCCCCCCC[n+]1ccn(C)c1.F[B-](F)(F)F,60.9 ± 4.2
22,C=CCCCC [hex-1-ene] + CCCCCCCC[n+]1ccn(C)c1.F[B-](F)(F)F,7.06 ± 0.48
23,CCCCCC [hexane] + CCCCCCCC[n+]1ccn(C)c1.F[B-](F)(F)F,12.4 ± 0.8
